Measured values published in ChEMBL document CHEMBL3885881, “DrugMatrix”.

Species on record: Rattus norvegicus
Assay: DrugMatrix - Regimen: Daily Repeat
Assay type: toxicity, organism-based, Sprague-Dawley
Design: regimen Daily Repeat, gender Male, age 6-8 weeks
Details: in vivo, po, route oral GAVAGE, […]; for ABSOLUTE BASOPHIL / ABSOLUTE EOSINOPHIL / ABSOLUTE LYMPHOCYTE / ABSOLUTE MONOCYTE / ABSOLUTE SEGMENTED NEUTROPHIL / BASOPHIL / EOSINOPHIL / ERYTHROCYTE COUNT / HEMATOCRIT / HEMOGLOBIN / LEUKOCYTE COUNT / LYMPHOCYTE / MEAN CORPUSCULAR HEMOGLOBIN / MEAN CORPUSCULAR HEMOGLOBIN CONCENTRATION / MEAN CORPUSCULAR VOLUME / MONOCYTE / NEUTROPHIL / NUCLEATED RED BLOOD CELLS / PLATELET COUNT: tissue Blood; for ALANINE AMINOTRANSFERASE / ALBUMIN / ALKALINE PHOSPHATASE / ASPARTATE AMINOTRANSFERASE / BLOOD UREA NITROGEN / CARBON DIOXIDE / CHLORIDE / CHOLESTEROL / CREATINE PHOSPHOKINASE / CREATININE / GLUCOSE / LACTATE DEHYDROGENASE / LIPASE / PHOSPHORUS / POTASSIUM / SODIUM / TOTAL BILIRUBIN / TOTAL PROTEIN / URIC ACID: tissue Plasma
[1] = 10 mg/kg, 120 h, dose level Low, time 5 day
[2] = 92 mg/kg, 72 h, dose level High, time 3 day
[3] = 92 mg/kg, 120 h, dose level High, time 5 day

c1ccc2[nH]c(-c3cscn3)nc2c1 [THIABENDAZOLE]
ABSOLUTE BASOPHIL [1]: 0 CELLS/uL | ABSOLUTE EOSINOPHIL [1]: 61 CELLS/uL | ABSOLUTE LYMPHOCYTE [1]: 15391 CELLS/uL | ABSOLUTE MONOCYTE [1]: 225.67 CELLS/uL | ABSOLUTE SEGMENTED NEUTROPHIL [1]: 1089 CELLS/uL | BASOPHIL [1]: 0% | EOSINOPHIL [1]: 0.33% | ERYTHROCYTE COUNT [1]: 6.11 x10E6/uL | HEMATOCRIT [1]: 37.8% | HEMOGLOBIN [1]: 14.63 G/DL | LEUKOCYTE COUNT [1]: 16.77 x10E3/uL | LYMPHOCYTE [1]: 92% | MEAN CORPUSCULAR HEMOGLOBIN [1]: 23.97 pg | MEAN CORPUSCULAR HEMOGLOBIN CONCENTRATION [1]: 38.7 G/DL | MEAN CORPUSCULAR VOLUME [1]: 61.9 fL | MONOCYTE [1]: 1.33% | NEUTROPHIL [1]: 6.33% | NUCLEATED RED BLOOD CELLS [1]: 0 /100WBC | PLATELET COUNT [1]: 1202.33 x10E3/uL | ALANINE AMINOTRANSFERASE [1]: 79.33 u/L | ALBUMIN [1]: 4 G/DL | ALKALINE PHOSPHATASE [1]: 420.33 u/L | ASPARTATE AMINOTRANSFERASE [1]: 82.33 u/L | BLOOD UREA NITROGEN [1]: 12.33 mg/dL | CARBON DIOXIDE [1]: 30.67 mmol/L | CHLORIDE [1]: 100.67 MEQ/L | CHOLESTEROL [1]: 66.33 mg/dL | CREATINE PHOSPHOKINASE [1]: 192 u/L | CREATININE [1]: 0.19 mg/dL | GLUCOSE [1]: 163.67 mg/dL | LACTATE DEHYDROGENASE [1]: 183 u/L | LIPASE [1]: 10.33 u/L | PHOSPHORUS [1]: 11.47 mg/dL | POTASSIUM [1]: 6.52 MEQ/L | SODIUM [1]: 143.07 MEQ/L | TOTAL BILIRUBIN [1]: 0.13 mg/dL | TOTAL PROTEIN [1]: 5.6 G/DL | URIC ACID [1]: 1.87 mg/dL | ABSOLUTE BASOPHIL [2]: 0 CELLS/uL | ABSOLUTE EOSINOPHIL [2]: 24 CELLS/uL | ABSOLUTE LYMPHOCYTE [2]: 7261 CELLS/uL | ABSOLUTE MONOCYTE [2]: 24 CELLS/uL | ABSOLUTE SEGMENTED NEUTROPHIL [2]: 591 CELLS/uL | BASOPHIL [2]: 0% | EOSINOPHIL [2]: 0.33% | ERYTHROCYTE COUNT [2]: 5.57 x10E6/uL | HEMATOCRIT [2]: 35.07% | HEMOGLOBIN [2]: 13.8 G/DL | LEUKOCYTE COUNT [2]: 7.9 x10E3/uL | LYMPHOCYTE [2]: 91.33% | MEAN CORPUSCULAR HEMOGLOBIN [2]: 24.83 pg | MEAN CORPUSCULAR HEMOGLOBIN CONCENTRATION [2]: 39.4 G/DL | MEAN CORPUSCULAR VOLUME [2]: 63.07 fL | MONOCYTE [2]: 0.33% | NEUTROPHIL [2]: 8% | NUCLEATED RED BLOOD CELLS [2]: 0.33 /100WBC | PLATELET COUNT [2]: 1094.67 x10E3/uL | ALANINE AMINOTRANSFERASE [2]: 74.33 u/L | ALBUMIN [2]: 4.13 G/DL | ALKALINE PHOSPHATASE [2]: 448.67 u/L | ASPARTATE AMINOTRANSFERASE [2]: 82 u/L | BLOOD UREA NITROGEN [2]: 11.67 mg/dL | CARBON DIOXIDE [2]: 25 mmol/L | CHLORIDE [2]: 95.67 MEQ/L | CHOLESTEROL [2]: 85 mg/dL | CREATINE PHOSPHOKINASE [2]: 153.33 u/L | CREATININE [2]: 0.32 mg/dL | GLUCOSE [2]: 135.67 mg/dL | LACTATE DEHYDROGENASE [2]: 102 u/L | LIPASE [2]: 9.33 u/L | PHOSPHORUS [2]: 9.53 mg/dL | POTASSIUM [2]: 5.43 MEQ/L | SODIUM [2]: 139.33 MEQ/L | TOTAL BILIRUBIN [2]: 0.13 mg/dL | TOTAL PROTEIN [2]: 5.73 G/DL | URIC ACID [2]: 0.6 mg/dL | ABSOLUTE BASOPHIL [3]: 0 CELLS/uL | ABSOLUTE EOSINOPHIL [3]: 47 CELLS/uL | ABSOLUTE LYMPHOCYTE [3]: 13905 CELLS/uL | ABSOLUTE MONOCYTE [3]: 244.33 CELLS/uL | ABSOLUTE SEGMENTED NEUTROPHIL [3]: 703.67 CELLS/uL | BASOPHIL [3]: 0% | EOSINOPHIL [3]: 0.33% | ERYTHROCYTE COUNT [3]: 6.23 x10E6/uL | HEMATOCRIT [3]: 39.1% | HEMOGLOBIN [3]: 15 G/DL | LEUKOCYTE COUNT [3]: 14.9 x10E3/uL | LYMPHOCYTE [3]: 93.33% | MEAN CORPUSCULAR HEMOGLOBIN [3]: 24.1 pg | MEAN CORPUSCULAR HEMOGLOBIN CONCENTRATION [3]: 38.37 G/DL | MEAN CORPUSCULAR VOLUME [3]: 62.7 fL | MONOCYTE [3]: 1.67% | NEUTROPHIL [3]: 4.67% | NUCLEATED RED BLOOD CELLS [3]: 0 /100WBC | PLATELET COUNT [3]: 1269.33 x10E3/uL | ALANINE AMINOTRANSFERASE [3]: 73.33 u/L | ALBUMIN [3]: 4.13 G/DL | ALKALINE PHOSPHATASE [3]: 474.33 u/L | ASPARTATE AMINOTRANSFERASE [3]: 82 u/L | BLOOD UREA NITROGEN [3]: 13.33 mg/dL | CARBON DIOXIDE [3]: 25.67 mmol/L | CHLORIDE [3]: 101 MEQ/L | CHOLESTEROL [3]: 64.33 mg/dL | CREATINE PHOSPHOKINASE [3]: 344.33 u/L | CREATININE [3]: 0.18 mg/dL | GLUCOSE [3]: 187 mg/dL | LACTATE DEHYDROGENASE [3]: 278 u/L | LIPASE [3]: 10.33 u/L | PHOSPHORUS [3]: 12.03 mg/dL | POTASSIUM [3]: 6.59 MEQ/L | SODIUM [3]: 141.23 MEQ/L | TOTAL BILIRUBIN [3]: 0.2 mg/dL | TOTAL PROTEIN [3]: 5.7 G/DL | URIC ACID [3]: 2.43 mg/dL
